Source: ChEMBL document CHEMBL3244409, “(2,6-Methano-3-benzazocin-11 beta-yl)alkanones. 1. Alkylalkanones: a new series of N-methyl derivatives with novel opiate activity profiles” (1979)

Key:
Type in all cases: functional
Rattus norvegicus [1] = assay: Analgesic activity in rat at 120 mg/kg, sc by tail flick test; conditions: route subcutaneous
Mus musculus [2] = assay: Analgesic activity in sc dosed mouse by acetylcholine writhing test
Rattus norvegicus [3] = assay: Analgesic activity in sc dosed rat assessed as inhibition of phenazocine-induced effect
Rattus norvegicus [4] = assay: Analgesic activity in sc dosed rat by intracarotid bradykinin test
Rattus norvegicus [5] = assay: Analgesic activity in sc dosed rat by tail flick test
Rattus norvegicus [6] = assay: Analgesic activity in sc dosed rat assessed as inhibition of morphine-induced effect
Rattus norvegicus [7] = assay: Analgesic activity in sc dosed rat assessed as inhibition of meperidine-induced effect
Mus musculus [8] = assay: Analgesic activity in mouse at 25 mg/kg, sc by acetylcholine writhing test; conditions: route subcutaneous
Rattus norvegicus [9] = assay: Analgesic activity in rat at 240 mg/kg, sc by tail flick test; conditions: route subcutaneous
[10] = Mus musculus, sc, read-out: ED50
[11] = Rattus norvegicus, sc, read-out: ED50
[12] = Rattus norvegicus, Tail, sc, read-out: ED50

COc1ccc2c(c1)[C@@]1(C)CCN(C)C(C2)[C@@]1(C)CCC(=O)CCCC(C)C.Cl (mixture of isomers)
Activity (Rattus norvegicus [1]): 70% | ED50 (Mus musculus [2]; [10]): 7.5 mg/kg | AD50 (Rattus norvegicus [3]): 80 mg/kg

CCCCC(=O)CC[C@]1(C)C2Cc3ccc(O)cc3[C@@]1(C)CCN2C.Cl (mixture of isomers)
ED50 (Rattus norvegicus [4]; [11]): 0.012 mg/kg | ED50 (Rattus norvegicus [5]; [12]): 0.039 mg/kg | ED50 (Mus musculus [2]; [10]): 0.017 mg/kg | AD50 (Rattus norvegicus [3]): 0.1 mg/kg

CCCCCC(=O)CC[C@]1(C)C2Cc3ccc(O)cc3[C@@]1(C)CCN2C.CS(=O)(=O)O (single isomer, unassigned; (-))
ED50 (Rattus norvegicus [4]): 0.022 mg/kg | ED50 (Rattus norvegicus [5]): 95 mg/kg | ED50 (Mus musculus [2]): 0.19 mg/kg | AD50 (Rattus norvegicus [3]): 0.005 mg/kg

CCCCCCC(=O)CC[C@]1(C)C2Cc3ccc(O)cc3[C@@]1(C)CCN2C.Cl (mixture of isomers)
ED50 (Rattus norvegicus [4]; [11]): 2.2 mg/kg | ED50 (Rattus norvegicus [5]; [12]): 120 mg/kg | ED50 (Mus musculus [2]; [10]): 12 mg/kg | AD50 (Rattus norvegicus [3]): 0.04 mg/kg

CCC(=O)CC[C@]1(C)C2Cc3ccc(OC)cc3[C@@]1(C)CCN2C.CS(=O)(=O)O (mixture of isomers)
ED50 (Rattus norvegicus [5]; [12]): 5.9 mg/kg | ED50 (Mus musculus [2]; [10]): 1.9 mg/kg | AD50 (Rattus norvegicus [3]): 1 mg/kg

CC(C)CC(=O)CC[C@]1(C)C2Cc3ccc(O)cc3[C@@]1(C)CCN2C.Cl (mixture of isomers)
ED50 (Rattus norvegicus [4]; [11]): 0.019 mg/kg | ED50 (Rattus norvegicus [5]; [12]): 0.067 mg/kg | ED50 (Mus musculus [2]; [10]): 0.019 mg/kg | AD50 (Rattus norvegicus [3]): 0.01 mg/kg

CC(C)CCCC(=O)CC[C@]1(C)C2Cc3ccc(O)cc3[C@@]1(C)CCN2C (mixture of isomers)
ED50 (Rattus norvegicus [5]; [12]): 120 mg/kg | ED50 (Mus musculus [2]; [10]): 5.3 mg/kg | AD50 (Rattus norvegicus [3]): 0.029 mg/kg

CCCCCC(=O)CC[C@]1(C)C2Cc3ccc(O)cc3[C@@]1(C)CCN2C.CS(=O)(=O)O (stereo in doubt; (+)-3e)
ED50 (Rattus norvegicus [4]): 50 mg/kg | ED50 (Rattus norvegicus [5]; [12]): 95 mg/kg | ED50 (Mus musculus [2]): 11 mg/kg | AD50 (Rattus norvegicus [3]): 80 mg/kg

COc1ccc2c(c1)[C@@]1(C)CCN(C)C(C2)[C@@]1(C)CCC(C)=O.Cl (mixture of isomers)
Activity (Rattus norvegicus [1]): 66% | ED50 (Mus musculus [2]; [10]): 3.5 mg/kg

CCCCC(=O)CC[C@]1(C)C2Cc3ccc(OC)cc3[C@@]1(C)CCN2C.Cl (mixture of isomers)
ED50 (Rattus norvegicus [5]; [12]): 1.35 mg/kg | ED50 (Mus musculus [2]; [10]): 0.63 mg/kg | AD50 (Rattus norvegicus [3]): 1 mg/kg

CC(=O)CC[C@]1(C)C2Cc3ccc(O)cc3[C@@]1(C)CCN2C.CS(=O)(=O)O (mixture of isomers)
ED50 (Rattus norvegicus [4]; [11]): 0.19 mg/kg | ED50 (Rattus norvegicus [5]; [12]): 2.5 mg/kg

CC(C)C(=O)CC[C@]1(C)C2Cc3ccc(O)cc3[C@@]1(C)CCN2C.Cl (mixture of isomers)
ED50 (Rattus norvegicus [4]; [11]): 0.12 mg/kg | ED50 (Rattus norvegicus [5]; [12]): 24 mg/kg | ED50 (Mus musculus [2]; [10]): 0.11 mg/kg | AD50 (Rattus norvegicus [3]): 80 mg/kg

CC(C)CCC(=O)CC[C@]1(C)C2Cc3ccc(O)cc3[C@@]1(C)CCN2C.Cl (stereo in doubt; (+)-3i)
ED50 (Rattus norvegicus [5]; [12]): 120 mg/kg | ED50 (Mus musculus [2]): 10 mg/kg | AD50 (Rattus norvegicus [3]): 20 mg/kg

CCCCCC(=O)CC[C@]1(C)C2Cc3ccc(O)cc3[C@@]1(C)CCN2C.Cl (mixture of isomers)
ED50 (Rattus norvegicus [4]; [11]): 0.043 mg/kg | AD50 (Rattus norvegicus [6]): 0.098 mg/kg | ED50 (Rattus norvegicus [5]; [12]): 120 mg/kg | ED50 (Mus musculus [2]; [10]): 0.24 mg/kg | AD50 (Rattus norvegicus [3]): 0.008 mg/kg | AD50 (Rattus norvegicus [7]): 0.19 mg/kg

CO[C@@]12CC[C@@]3(C[C@@H]1[C@](C)(O)C(C)(C)C)[C@H]1Cc4ccc(O)c5c4[C@@]3(CCN1CC1CC1)[C@H]2O5 [BUPRENORPHINE]
ED50 (Rattus norvegicus [4]; [11]): 0.004 mg/kg | Activity (Rattus norvegicus [1]): 14% | ED50 (Mus musculus [2]; [10]): 0.059 mg/kg | AD50 (Rattus norvegicus [3]): 0.11 mg/kg

COc1ccc2c(c1)[C@@]1(C)CCN(C)C(C2)[C@@]1(C)CCC(=O)C(C)C.CS(=O)(=O)O (mixture of isomers)
Activity (Rattus norvegicus [1]): 42% | ED50 (Mus musculus [2]; [10]): 5 mg/kg | AD50 (Rattus norvegicus [3]): 80 mg/kg

CN1CC[C@]23c4c5ccc(O)c4O[C@H]2[C@@H](O)C=C[C@H]3[C@H]1C5 [MORPHINE]
ED50 (Rattus norvegicus [4]; [11]): 2.3 mg/kg | ED50 (Rattus norvegicus [5]; [12]): 3.9 mg/kg

COc1ccc2c(c1)[C@@]1(C)CCN(C)C(C2)[C@@]1(C)CCC(=O)CCC(C)C.Cl (mixture of isomers)
ED50 (Rattus norvegicus [4]; [11]): 2.4 mg/kg | ED50 (Rattus norvegicus [5]; [12]): 16 mg/kg | ED50 (Mus musculus [2]; [10]): 2 mg/kg | AD50 (Rattus norvegicus [3]): 80 mg/kg

C[C@H]1[C@H]2Cc3ccc(O)cc3[C@]1(C)CCN2CC1CC1 [CYCLAZOCINE]
AD50 (Rattus norvegicus [6]): 0.029 mg/kg | AD50 (Rattus norvegicus [3]): 0.028 mg/kg | AD50 (Rattus norvegicus [7]): 0.024 mg/kg

CCCC(=O)CC[C@]1(C)C2Cc3ccc(OC)cc3[C@@]1(C)CCN2C.CS(=O)(=O)O (mixture of isomers)
ED50 (Rattus norvegicus [5]; [12]): 2 mg/kg | ED50 (Mus musculus [2]; [10]): 0.89 mg/kg | AD50 (Rattus norvegicus [3]): 80 mg/kg

CCCCCCC(=O)CC[C@]1(C)C2Cc3ccc(OC)cc3[C@@]1(C)CCN2C.Cc1ccc(S(=O)(=O)O)cc1 (mixture of isomers)
ED50 (Rattus norvegicus [5]; [12]): 120 mg/kg | AD50 (Rattus norvegicus [3]): 80 mg/kg | Activity (Mus musculus [8]): 20%

COc1ccc2c(c1)[C@@]1(C)CCN(C)C(C2)[C@@]1(C)CCC(=O)CC(C)C.CS(=O)(=O)O (mixture of isomers)
ED50 (Rattus norvegicus [5]; [12]): 4.3 mg/kg | ED50 (Mus musculus [2]; [10]): 1 mg/kg | AD50 (Rattus norvegicus [3]): 80 mg/kg

CCCC(=O)CC[C@]1(C)C2Cc3ccc(O)cc3[C@@]1(C)CCN2C.Cl (mixture of isomers)
ED50 (Rattus norvegicus [4]; [11]): 0.019 mg/kg | ED50 (Rattus norvegicus [5]; [12]): 0.099 mg/kg | ED50 (Mus musculus [2]; [10]): 0.023 mg/kg | AD50 (Rattus norvegicus [3]): 80 mg/kg

C=CCN1CC[C@]23c4c5ccc(O)c4O[C@H]2C(=O)CC[C@@]3(O)[C@H]1C5 [NALOXONE]
AD50 (Rattus norvegicus [6]): 0.004 mg/kg | ED50 (Mus musculus [2]; [10]): 60 mg/kg | AD50 (Rattus norvegicus [3]): 0.008 mg/kg | AD50 (Rattus norvegicus [7]): 0.004 mg/kg

CC(C)CCC(=O)CC[C@]1(C)C2Cc3ccc(O)cc3[C@@]1(C)CCN2C.Cl (mixture of isomers)
ED50 (Rattus norvegicus [4]; [11]): 0.032 mg/kg | Activity (Rattus norvegicus [9]): 47% | AD50 (Rattus norvegicus [6]): 0.58 mg/kg | ED50 (Mus musculus [2]): 0.074 mg/kg | AD50 (Rattus norvegicus [3]): 0.3 mg/kg | AD50 (Rattus norvegicus [7]): 0.73 mg/kg

CCC(=O)CC[C@]1(C)C2Cc3ccc(O)cc3[C@@]1(C)CCN2C.Cl (mixture of isomers)
ED50 (Rattus norvegicus [5]; [12]): 0.99 mg/kg | ED50 (Mus musculus [2]; [10]): 0.18 mg/kg | AD50 (Rattus norvegicus [3]): 1 mg/kg

CC(C)CCC(=O)CC[C@]1(C)C2Cc3ccc(O)cc3[C@@]1(C)CCN2C.Cl (stereo in doubt; (-)-3i)
Activity (Rattus norvegicus [1]): 46% | ED50 (Mus musculus [2]): 0.016 mg/kg | AD50 (Rattus norvegicus [3]): 0.088 mg/kg

CCCCCC(=O)CC[C@]1(C)C2Cc3ccc(OC)cc3[C@@]1(C)CCN2C.Cl (mixture of isomers)
ED50 (Rattus norvegicus [5]; [12]): 30 mg/kg | ED50 (Mus musculus [2]; [10]): 1.5 mg/kg | AD50 (Rattus norvegicus [3]): 10 mg/kg

CC(=O)CC[C@]1(C)C2Cc3ccc(O)cc3[C@@]1(C)CCN2C (mixture of isomers)
ED50 (Mus musculus [2]; [10]): 0.25 mg/kg | AD50 (Rattus norvegicus [3]): 40 mg/kg
